The text below walks through data of US11780845B2 (Relay Therapeutics, Inc., priority 2019, dated 2023).

pIC50: −log10 of the molar value.

The target of the assay is FGFR2 (Homo sapiens (Human), UniProt P21802). Kind of assay: FGFR2 Biochemical Caliper Assay. The method, then: Compounds of the present invention were also tested in a FGFR2 Biochemical Caliper Assay. Compounds were prepared in 10 mM DMSO solution and serially diluted into 11 concentrations by 3-fold dilution. […] 5 uL of ATP solution (100 uM) was added to start the reaction and the plate was incubated for 90 minutes, then 70 uL of stopping buffer (0.5M EDTA) was added to terminate the reaction. Each well was analyzed using EZ reader.
FGFR2, sequence (P21802 22-821): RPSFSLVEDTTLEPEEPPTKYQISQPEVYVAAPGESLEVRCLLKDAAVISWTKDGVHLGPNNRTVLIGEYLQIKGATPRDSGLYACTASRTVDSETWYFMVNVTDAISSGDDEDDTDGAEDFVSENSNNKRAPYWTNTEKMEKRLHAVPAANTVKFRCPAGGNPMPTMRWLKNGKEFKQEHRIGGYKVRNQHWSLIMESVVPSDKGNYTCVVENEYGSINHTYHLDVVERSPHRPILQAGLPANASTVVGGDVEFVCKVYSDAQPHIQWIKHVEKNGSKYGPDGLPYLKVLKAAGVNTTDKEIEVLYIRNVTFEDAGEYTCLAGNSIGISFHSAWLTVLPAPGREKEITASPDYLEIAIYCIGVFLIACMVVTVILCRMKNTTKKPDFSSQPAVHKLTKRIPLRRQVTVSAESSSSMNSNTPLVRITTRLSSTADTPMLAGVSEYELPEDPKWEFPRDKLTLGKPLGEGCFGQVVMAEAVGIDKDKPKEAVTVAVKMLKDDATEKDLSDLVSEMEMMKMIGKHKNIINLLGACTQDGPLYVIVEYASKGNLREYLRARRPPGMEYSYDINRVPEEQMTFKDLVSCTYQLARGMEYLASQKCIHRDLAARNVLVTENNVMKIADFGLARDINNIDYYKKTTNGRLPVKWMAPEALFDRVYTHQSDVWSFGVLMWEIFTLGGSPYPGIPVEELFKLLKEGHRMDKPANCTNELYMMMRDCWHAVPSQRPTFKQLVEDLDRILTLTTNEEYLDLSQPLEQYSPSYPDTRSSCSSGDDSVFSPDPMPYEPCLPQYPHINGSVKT
By pIC50 is commonly meant the negative decadic logarithm of the IC50, by convention in mol/L. The molecule `C=C(C)C(=O)Nc1ccc(-c2c(-c3ccc(Oc4nccc(C)n4)c(F)c3)c3c(N)ncnc3n2C)c(C(=O)N(C)C)c1` [Example 519] had a negative-log IC50 (pIC50) of 4.00 to 6.00.

Molecule `C=C(C)C(=O)Nc1ccc(-c2c(-c3ccc(CN4CCN(C)CC4)cc3)c3c(N)ncnc3n2C)cc1` [Example 172] gave a negative logarithm of the IC50 (pIC50) of 4.00 to 6.00. To `C=C(C)C(=O)Nc1ccc(-c2c(-c3ccc(OCC)c(OCC)c3)c3c(N)ncnc3n2C)cc1` [Example 196] belongs 4.00 to 6.00; to `C=C(C)C(=O)Nc1ccc(-c2c(-c3ccc(OC4CCN(C)CC4)nc3)c3c(N)ncnc3n2C)cc1` [Example 187], 4.00 to 6.00; to `C=C(C)C(=O)Nc1ccc(-c2c(-c3cccc(OC)c3)c3c(N)ncnc3n2C)cc1` [Example 55], 6.00 to 6.60. As for `C=C(C)C(=O)Nc1ccc(-c2c(-c3ccc(C(=O)N4CCC[C@H]4C#N)cc3)c3c(N)ncnc3n2C)cc1` [Example 359], the pIC50 is more than 7.00. In turn, `C=C(C)C(=O)Nc1ccc(-c2c(-c3cccc(C(=O)N4CCCC4)c3)c3c(N)ncnc3n2C)cc1` [Example 183] had a pIC50 of 4.00 to 6.00. Regarding `C=CC(=O)N1CCC(n2cc(-c3c(-c4ccc(Oc5ccccc5)cc4Cl)c4c(N)ncnc4n3C)cn2)CC1` [Example 615], the pIC50 was more than 7.00. To `C=C(C)C(=O)Nc1ccc(-c2c(-c3ccc(Oc4cccc(C)c4)c(OC)c3)c3c(N)ncnc3n2C)cc1` [Example 33] belongs 6.00 to 6.60; to `C=CC(=O)Nc1ccc(-c2c(-c3ccc(OC)c(OC)c3)c3c(N)ncnc3n2C)cc1` [Example 46], more than 7.00.

As to `C=C(C)C(=O)Nc1ccc(-c2c(-c3ccc(Cc4ncccn4)c(OC)c3)c3c(N)ncnc3n2C)cc1` [Example 106], the pIC50 was 4.00 to 6.00.

`C=CC(=O)Nc1ccc(-c2c(-c3ccc(N(C)c4ncccn4)c(OC)c3)c3c(N)ncnc3n2C)cc1` [Example 57] gave a negative logarithm of the IC50 (pIC50) of 6.60 to 7.00. The same measure for `C=CC(=O)N1CCC(n2cc(-c3c(-c4ccc(Cl)c(OC)c4)c4c(N)ncnc4n3C)cn2)CC1` [Example 609]: 6.00 to 6.60. The same measure for `C=C(C)C(=O)Nc1ccc(-c2c(-c3ccc(C(=O)N4CCCC4)cc3)c3c(N)ncnc3n2C)c(C2CC2)c1` [Example 518]: more than 7.00; for `Cn1c(-c2ccc(N3CC=CC3=O)cc2)c(-c2ccc(C(=O)N3CCCC3)cc2)c2c(N)ncnc21` [Example 557]: 4.00 to 6.00; for `C=C(C)C(=O)Nc1ccc(-c2c(-c3ccc(-c4ncc[nH]4)cc3)c3c(N)ncnc3n2C)cc1` [Example 149]: 6.00 to 6.60. To `C=CC(=O)Nc1ccc(-c2c(-c3ccc(Oc4cncc(C)c4)c(OC)c3)c3c(N)ncnc3n2C)cc1` [Example 41] belongs more than 7.00; to `C=C(C)C(=O)Nc1ccc(-c2c(-c3ccc(C(=O)NC(C)CO)cc3)c3c(N)ncnc3n2C)cc1` (centres unmarked) [Example 319], more than 7.00; to `C=C(C)C(=O)Nc1ccc(-c2c(-c3ccc(Oc4ncccn4)cc3)c3c(N)ncnc3n2C)cc1` [Example 52], more than 7.00.

For `C=C(C)C(=O)Nc1ccc(-c2c(-c3ccc(-c4nc(C)c(C)o4)cc3)c3c(N)ncnc3n2C)cc1` [Example 279], the pIC50 was 6.60 to 7.00. Turning to `Cn1c(-c2ccc(NC(=O)C3CO3)cc2)c(-c2ccc(C(=O)N3CCCC3)cc2)c2c(N)ncnc21` (centres unmarked) [Example 586], the negative logarithm of the IC50 (pIC50) was 6.60 to 7.00. The same measure for `C=CC(=O)N[C@H]1C[C@H](n2cc(-c3c(-c4ccc(Oc5ccccc5)cc4)c4c(N)ncnc4n3C)cn2)C1` [Example 605]: more than 7.00; for `C=C(C)C(=O)Nc1ccc(-c2c(-c3ccc(C(=O)NCC4COCCN4C)cc3)c3c(N)ncnc3n2C)cc1` (centres unmarked) [Example 392]: 4.00 to 6.00. `C=C(C)C(=O)Nc1ccc(-c2c(-c3cncc(CO)c3)c3c(N)ncnc3n2C)cc1` [Example 134]: the pIC50 was 4.00 to 6.00. To `C=C(C)C(=O)Nc1ccc(-c2c(C3=CCC(Oc4ccn(C)n4)CC3)c3c(N)ncnc3n2C)cc1` (centres unmarked) [Example 551] belongs 6.00 to 6.60; to `C=C(C)C(=O)Nc1ccc(-c2c(-c3ccc(C(=O)NCC4COC4)cc3)c3c(N)ncnc3n2C)cc1` [Example 366], 6.60 to 7.00.

Consider `C=C(C)C(=O)Nc1ccc(-c2c(-c3ccc(N(C)C)nc3)c3c(N)ncnc3n2C)cc1` [Example 131], for which the pIC50 is 4.00 to 6.00. As to `C=C(C)C(=O)Nc1ccc(-c2c(-c3ccc(Oc4nccc(C)n4)c(N(C)C)c3)c3c(N)ncnc3n2C)cc1` [Example 504], the pIC50 was 4.00 to 6.00. Molecule `C=CC(=O)Nc1ccc(-c2c(C3CCN(C(=O)CNC(=O)NC)CC3)c3c(N)ncnc3n2C)cc1` [Example 104] had a negative-log IC50 (pIC50) of 4.00 to 6.00.

In the case of `C=C(C)C(=O)Nc1ccc(-c2c(-c3ccc(C(=O)N4CCC5(COC5)C4)cc3)c3c(N)ncnc3n2C)cc1` [Example 271], the negative logarithm of the IC50 (pIC50) was 4.00 to 6.00.

Consider `C=C(C)C(=O)Nc1ccc(-c2c(-c3ccc(-c4cocn4)cc3)c3c(N)ncnc3n2C)cc1` [Example 278], for which the negative-log IC50 (pIC50) was 6.00 to 6.60. The same measure for `C=C(C)C(=O)Nc1ccc(-c2c(-c3cnc(Oc4cccc(C)n4)cn3)c3c(N)ncnc3n2C)cc1` [Example 480]: 6.00 to 6.60; for `C=C(C)C(=O)Nc1ccc(-c2c(-c3ccc(C(=O)N(CCN)CC(F)(F)F)cc3)c3c(N)ncnc3n2C)cc1` [Example 430]: 6.00 to 6.60.

`C=CC(=O)N1Cc2ccc(-c3c(-c4ccc(Oc5cccc(C)n5)c(OC)c4)c4c(N)ncnc4n3C)cc2C1` [Example 8] showed a pIC50 of more than 7.00. To `C=CC(=O)Nc1cccc(-c2c(-c3ccc(Oc4cccc(C)n4)cc3)c3c(N)ncnc3n2C)c1` [Example 22] belongs more than 7.00; to `C=C(C)C(=O)Nc1ccc(-c2c(-c3ccn4ccnc4c3)c3c(N)ncnc3n2C)cc1` [Example 153], 4.00 to 6.00; to `C=C(C)C(=O)Nc1ccc(-c2c(-c3ccc(C(=O)N4CCC(OC)CC4)cc3)c3c(N)ncnc3n2C)cc1` [Example 242], 4.00 to 6.00. `Cn1c(-c2ccc(N3CC=CS3(=O)=O)cc2)c(-c2ccc(C(=O)N3CCCC3)cc2)c2c(N)ncnc21` [Example 556] gave a pIC50 of 6.00 to 6.60. The same measure for `C=C(C)C(=O)Nc1ccc(-c2c(-c3ccc(C(=O)NCC4(C)CC4)cc3)c3c(N)ncnc3n2C)cc1` [Example 349]: more than 7.00; for `C=CC(=O)N(C)c1ccc(-c2c(-c3ccc(Oc4cccc(C)n4)cc3)c3c(N)ncnc3n2C)cc1` [Example 9]: more than 7.00. Molecule `C=C(C)C(=O)Nc1ccc(-c2c(-c3ccc(Oc4nccc(C)n4)c(COC)c3)c3c(N)ncnc3n2C)cc1` [Example 501] had a negative-log IC50 (pIC50) of 4.00 to 6.00. The same measure for `C=CC(=O)Nc1ccc(-c2c(C3CCN(C(=O)C(C)CCNC)CC3)c3c(N)ncnc3n2C)cc1` (centres unmarked) [Example 105]: 6.00 to 6.60; for `C=C(C)C(=O)Nc1ccc(-c2c(-c3ccc(-c4nnc(C(F)(F)F)o4)cc3)c3c(N)ncnc3n2C)cc1` [Example 286]: 4.00 to 6.00. The same measure for `C=C(C)C(=O)Nc1ccc(-c2c(-c3ccc(C(=O)N(C)C4CC(F)(F)C4)cc3)c3c(N)ncnc3n2C)cc1` [Example 273]: 6.00 to 6.60. The same measure for `C=C(C)C(=O)Nc1ccc(-c2c(-c3cc(O)c(Oc4ccccn4)c(Cl)c3)c3c(N)ncnc3n2C)cc1` [Example 162]: 6.00 to 6.60; for `C=C(C)C(=O)Nc1ccc(-c2c(-c3ccc(CC(=O)N(C)C)cc3)c3c(N)ncnc3n2C)cc1` [Example 130]: 4.00 to 6.00; for `C=C(C)C(=O)Nc1ccc(-c2c(-c3ccc(S(=O)(=O)NCC(F)(F)F)cc3)c3c(N)ncnc3n2C)cc1` [Example 326]: 4.00 to 6.00. Molecule `C=C(C)C(=O)Nc1ccc(-c2c(-c3ccc(Oc4cccc(C)n4)cc3)c3c(N)ncnc3n2C)cc1COC` [Example 403] gave a negative-log IC50 (pIC50) of 6.60 to 7.00. To `C=C(C)C(=O)Nc1ccc(-c2c(-c3ccc(C(=O)N4CC5(CCO5)C4)cc3)c3c(N)ncnc3n2C)cc1` [Example 243] belongs 4.00 to 6.00; to `C=C(C)C(=O)Nc1ccc(-c2c(-c3ccc4c(ccn4S(C)(=O)=O)c3)c3c(N)ncnc3n2C)cc1` [Example 281], 4.00 to 6.00. `C=C(C)C(=O)Nc1ccc(-c2c(-c3ccc(C(=O)NCC4(C#N)CC4)cc3)c3c(N)ncnc3n2C)cc1` [Example 360]: the negative-log IC50 (pIC50) is more than 7.00. For `C/C=C/C(=O)Nc1ccc(-c2c(-c3cccc(OC)c3)c3c(N)ncnc3n2C)cc1` [Example 72], the pIC50 is 6.00 to 6.60. The same measure for `C=C(C)C(=O)Nc1ccc(-c2c(-c3ccc(Oc4ncc(F)cn4)c(N(C)C)c3)c3c(N)ncnc3n2C)cc1` [Example 443]: 4.00 to 6.00; for `C=C(C)C(=O)Nc1ccc(-c2c([C@H]3CC[C@H](C(=O)N4CCCC4)CC3)c3c(N)ncnc3n2C)cc1` [Example 578]: 4.00 to 6.00. The same measure for `C=C(C)C(=O)Nc1ccc(-c2c(-c3ccc(C(=O)N(C)Cc4ncno4)cc3)c3c(N)ncnc3n2C)cc1` [Example 481]: 4.00 to 6.00; for `C=C(C)C(=O)Nc1ccc(-c2c(C3=CC[C@H](C(=O)N4CC[C@@H](CO)C4)CC3)c3c(N)ncnc3n2C)cc1` (single isomer, unassigned) [Example 575]: 4.00 to 6.00; for `C=CC(=O)N1CCC(n2cc(-c3c(-c4c(Cl)ccc5c4OCO5)c4c(N)ncnc4n3C)cn2)CC1` [Example 616]: 4.00 to 6.00.

`C=C(C)C(=O)Nc1ccc(-c2c(-c3ccc4c(c3)CCC(=O)N4)c3c(N)ncnc3n2C)cc1` [Example 147] showed a pIC50 of 4.00 to 6.00. To `C=C(C)C(=O)Nc1ccc(-c2c(-c3ccc(Oc4ccc(F)nc4)c(O)c3)c3c(N)ncnc3n2C)cc1` [Example 112] belongs 4.00 to 6.00. To `C=C(C)C(=O)Nc1ccc(-c2c(-c3ccc(N(C)C(=O)C4CCCC4)cc3)c3c(N)ncnc3n2C)cc1` [Example 222] belongs 4.00 to 6.00. In turn, `C=C(C)C(=O)Nc1ccc(-c2c(-c3ccc4c(c3)CS(=O)(=O)C4)c3c(N)ncnc3n2C)cc1` [Example 193] had a pIC50 of 4.00 to 6.00. To `C=C(C)C(=O)Nc1ccc(-c2c(-c3ccn(Cc4cccc(C)n4)c(=O)c3)c3c(N)ncnc3n2C)cc1` [Example 488] belongs 4.00 to 6.00.
